Tested on: subjects with major depressive disorder (MDD) who were inadequate responders to citalopram
Assay: Individual HAMD-17 factor (subscale) scores, exploratory analysis
Assay type: in vivo, human
Protocol: In more detail, a multi-center double-blind, randomized, placebo-controlled, parallel group, flexible dose titration study of TC-5214 as adjunctive therapy in subjects with major depressive disorder (MDD) who were inadequate responders to citalopram was conducted in centers in the US and India. The study consisted of a screening period, baseline/washout period, open-label phase, double-blind phase, and a follow-up visit. Subject participation in the study could continue for up to 16 weeks of treatment. Following a washout period of up to 28 days for other antidepressants, subjects with MDD and a MADRS total score >/=28 and a Clinical Global Impression-Severity (CGI-S) score >/=4 were enrolled on Day 1 into an open-label citalopram-only phase of the study. This phase lasted 8 weeks, with citalopram (CIT) dose increased from a once-daily dose of 20 mg (Day 1 through Week 4) to 40 mg (Week 4 through Week 8). A total of 579 subjects entered the open-label citalopram phase. At Week 8, subjects who tolerated 40 mg CIT, but whose MADRS score was reduced <50% from baseline and no lower than 17, and CGI-S≧4, were considered inadequate responders. These subjects (n=270) were randomized in a double-blind fashion to receive either placebo or TC-5214-23 as add-on therapy to continued CIT. The double-blind phase of the study also lasted 8 weeks (Week 8 to Week 16). Study drug, TC-5214-23 or placebo, was started at 2 mg daily (1 mg twice per day [BID] dosing), added on to continuing CIT (40 mg PO qd). After 2 weeks of treatment, the dose of TC-5214 could be increased to 4 mg (2 mg BID) or continued unchanged, with up-titration based upon good tolerability and inadequate therapeutic response. After a further 2 weeks, the dose of TC-5214 could be increased again to 8 mg (4 mg BID) if judged appropriate by the investigator, based upon good tolerability and inadequate therapeutic response. At any time during the double-blind phase of the study, placebo or TC-5214-23 could be reduced to the previous dose level following the emergence of unacceptable adverse events (AEs). […] At this follow-up, any signs or symptoms of relapse were evaluated. If a subject was prematurely discontinued from the study between Week 8 and Week 16 for any reason, the investigator was to make every effort to perform all evaluations as per protocol, assuming the subject had reached the end of the double-blind add-on treatment phase. These evaluations were to be made as soon as possible and within 2 weeks of discontinuation. […] There was no meaningful difference in results as a function of age, gender, site, or smoking status. An exploratory analysis assessed the differences in the treatment groups from Week 8 (double-blind baseline) to Week 16 for each individual HAMD-17 factor score.

[1] = ITT population, Week 8 (double-blind baseline) to Week 16

With `CNC1(C)C2CCC(C2)C1(C)C` (stereo in doubt) [TC-5214, (S)—N,2,3,3-tetramethylnorbornan-2-amine] the “HAMD-17 item 1 Depression-Mood: Adjusted Mean Change TC-5214—Placebo (SD)” value [1] was −0.69 (0.86), the “HAMD-17 item 1 Depression-Mood: Effect Size” value [1] was 0.80 and the “HAMD-17 item 2 Feelings of Guilt: Adjusted Mean Change TC-5214—Placebo (SD)” value [1] was −0.43 (0.72). For the same molecule, the “HAMD-17 item 2 Feelings of Guilt: Effect Size” value [1] was 0.60, the “HAMD-17 item 3 Suicide: Adjusted Mean Change TC-5214—Placebo (SD)” value [1] was −0.07 (0.40) and the “HAMD-17 item 3 Suicide: Effect Size” value [1] was 0.18. For the same molecule, the “HAMD-17 item 4 Early Insomnia: Adjusted Mean Change TC-5214—Placebo (SD)” value [1] was −0.41 (0.64), the “HAMD-17 item 4 Early Insomnia: Effect Size” value [1] was 0.64 and the “HAMD-17 item 5 Middle Insomnia: Adjusted Mean Change TC-5214—Placebo (SD)” value [1] was −0.42 (0.64). For the same molecule, the “HAMD-17 item 5 Middle Insomnia: Effect Size” value [1] was 0.66, the “HAMD-17 item 6 Late Insomnia: Adjusted Mean Change TC-5214—Placebo (SD)” value [1] was −0.35 (0.63) and the “HAMD-17 item 6 Late Insomnia: Effect Size” value [1] was 0.56. For the same molecule, the “HAMD-17 item 7 Work and Activities: Adjusted Mean Change TC-5214—Placebo (SD)” value [1] was −0.49 (0.86), the “HAMD-17 item 7 Work and Activities: Effect Size” value [1] was 0.57 and the “HAMD-17 item 8 Retardation: Adjusted Mean Change TC-5214—Placebo (SD)” value [1] was −0.31 (0.59). The “HAMD-17 item 8 Retardation: Effect Size” value [1] was 0.53, the “HAMD-17 item 9 Agitation: Adjusted Mean Change TC-5214—Placebo (SD)” value [1] was −0.40 (0.68) and the “HAMD-17 item 9 Agitation: Effect Size” value [1] was 0.59. The “HAMD-17 item 10 Psychic Anxiety: Adjusted Mean Change TC-5214—Placebo (SD)” value [1] was −0.59 (0.77), the “HAMD-17 item 10 Psychic Anxiety: Effect Size” value [1] was 0.77 and the “HAMD-17 item 11 Somatic Symptoms: Anxiety: Adjusted Mean Change TC-5214—Placebo (SD)” value [1] was −0.41 (0.70). For the same molecule, the “HAMD-17 item 11 Somatic Symptoms: Anxiety: Effect Size” value [1] was 0.59, the “HAMD-17 item 12 Somatic Symptoms: GI: Adjusted Mean Change TC-5214—Placebo (SD)” value [1] was −0.23 (0.52) and the “HAMD-17 item 12 Somatic Symptoms: GI: Effect Size” value [1] was 0.44. The “HAMD-17 item 13 Somatic Symptoms: General: Adjusted Mean Change TC-5214—Placebo (SD)” value [1] was −0.24 (0.66), the “HAMD-17 item 13 Somatic Symptoms: General: Effect Size” value [1] was 0.36 and the “HAMD-17 item 14 Somatic Symptoms: Genital: Adjusted Mean Change TC-5214—Placebo (SD)” value [1] was −0.34 (0.62). The “HAMD-17 item 14 Somatic Symptoms: Genital: Effect Size” value [1] was 0.55, the “HAMD-17 item 15 Hypochondriasis: Adjusted Mean Change TC-5214—Placebo (SD)” value [1] was −0.48 (0.74) and the “HAMD-17 item 15 Hypochondriasis: Effect Size” value [1] was 0.65. For the same molecule, the “HAMD-17 item 16 Weight Loss: Adjusted Mean Change TC-5214—Placebo (SD)” value [1] was −0.20 (0.53), the “HAMD-17 item 16 Weight Loss: Effect Size” value [1] was 0.38 and the “HAMD-17 item 17 Insight: Adjusted Mean Change TC-5214—Placebo (SD)” value [1] was 0.03 (0.31). For the same molecule, the “HAMD-17 item 17 Insight: Effect Size” value [1] was 0.10 and the “each HAMD-17 subscale score change from baseline compared with placebo” value (ITT, with the exception of the Suicide and Insight subscales, result in words) was “statistically significant decreases (improvements)”.
